The test system of this series is human OSCC cells (three oral SCC cell lines). Type of series: cell-based. The note with it: for maximum uptake (fluorescence intensity): 6 h. The protocol:
Mean±S.D., n=18, *=p<0.01, ‡=p,0.001, Mann Whitney U 2-tailed test.
The internalization of free-IDA was more rapid than IDA-NP after 1-hour at 1000 nM (free-IDA: 21.08±5.33 vs. IDA-NP: 12.87±4.32). However, the maximum uptake of IDA-NP was greater than free-IDA after 6 hours at 2500 nM (IDA-NP: 43.53±8.42 vs. free-IDA: 27.61±5.66) and 5000 nM (IDA-NP: 64.44±12.71 vs. free-IDA: 31.06±7.24). [Data collected from three oral SCC cell lines, mean±SD, n=18, *P≤0.01 †P≤0.002, ‡P≤0.001; IDA-NP samples compared to free-IDA samples [Mann-Whitney U two-tailed Test].

Read-outs that look alike come from different tables or passages of the source.

`CC(=O)[C@]1(O)Cc2c(O)c3c(c(O)c2[C@@H](O[C@H]2C[C@H](N)[C@H](O)[C@H](C)O2)C1)C(=O)c1ccccc1C3=O` [free-IDA, idarubicin]: the “internalization / cellular uptake (fluorescence intensity)” value (1 h, 1000 nM) is on record as 21.08±5.33. Moreover, the “maximum uptake (fluorescence intensity)” value reads like this: (2500 nM) 27.61±5.66; (5000 nM) 31.06±7.24.

The values are drawn from patent US11033496B2, “Nanoparticles for delivery of chemopreventive agents” (OHIO STATE INNOVATION FOUNDATION, priority 2017, dated 2021).
